Converted amounts (≈) assume the structure as drawn. Where two headings read alike, the source gives them in different places.
Key:
Assay type in all cases: cell-based
[1] = system: Streptococcus pneumoniae 1016; assay: MIC, microtiter broth dilution (NCCLS M100-S14), S. pneumoniae 1016 (susceptible)
Outline: (§1)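 Minimum inhibitory concentration by broth microdilution in trays (NCCLS M100-S14); starting stocks 40 mg/ml, DMSO.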

[2] = system: Haemophilus influenzae 1218; assay: MIC, microtiter broth dilution (NCCLS M100-S14), H. influenzae 1218 (susceptible)
Outline: as §1

[3] = system: Streptococcus pneumoniae 1095; conditions: microtiter broth dilution
Outline: as §1

[4] = system: Streptococcus pneumoniae 1175; conditions: microtiter broth dilution
Outline: as §1

[5] = system: Streptococcus pyogenes 1079; assay: MIC, microtiter broth dilution (NCCLS M100-S14), S. pyogenes 1079 (ermB)
Outline: as §1

[6] = S. pneumoniae 1016 (susceptible)
[7] = H. influenzae 1218 (susceptible)

Row | SMILES | MIC S. pneumo. 1016 ([1]; Streptococcus pneumoniae 1016) [µg/mL] | MIC H. influenzae 1218 ([2]; Haemophilus influenzae 1218) [µg/mL] | MIC S. pneumo. 1095 ([3]; Streptococcus pneumoniae 1095) [µg/mL] | MIC S. pneumo. 1175 ([4]; Streptococcus pneumoniae 1175) [µg/mL] | MIC S. pyogenes 1079 ([5]; Streptococcus pyogenes 1079) [µg/mL] | MIC S. pneumo. 1016 [1, 6] [µg/mL] | MIC H. influenzae 1218 [2, 7] [µg/mL] | MIC S. pneumo. 1095 ([3]; S. pneumoniae 1095 (ermB)) [µg/mL] | MIC S. pneumo. 1175 ([4]; S. pneumoniae 1175 (mefA)) [µg/mL] | MIC S. pyogenes 1079 ([5]; S. pyogenes 1079 (ermB)) [µg/mL]
1 | CCOc1ccc(S(=O)(=O)N2CC(N3C(=O)OC4(C)C(CC)OC(=O)C(C)(F)C(=O)C(C)C(OC5OC(C)CC(N(C)C)C5O)C(C)(OC)CC(C)C(=O)C(C)C34)C2)cc1C#N (stereo not drawn) [Example 3.103, 3-descladinosyl-11,12-dideoxy-2-fluoro-6-O-methyl-3-oxo-12,11-(oxycarbonyl-(1-(3-cyano-4-ethoxybenzene-1-sulfonyl)-azetidin-3-yl)-imino)-erythromycin A] | <0.063 | 2 (≈ 2.23 µM) | <0.063 | <0.063 | 0.5 (≈ 0.559 µM) | – | – | – | – | –
2 | CC[C@H]1OC(=O)[C@H](C)[C@@H](OC(=O)N2CCCC2)[C@H](C)[C@@H](O[C@@H]2O[C@H](C)C[C@H](N(C)C)[C@H]2O)[C@](C)(OC)C[C@@H](C)C(=O)[C@H](C)[C@H]2N(CC3CN(C(=O)c4ccnc5ccccc45)C3)C(=O)O[C@]12C [Example 5.01, 2-R^2: quinoline-4-carboxyl; R^#: pyrrolidin-1-yl] | <0.06 | 2 (≈ 2.14 µM) | 0.5 (≈ 0.534 µM) | <0.06 | 64 (≈ 68.4 µM) | – | – | – | – | –
3 | CCC1OC(=O)C(C)C(=O)C(C)C(OC2OC(C)CC(N(C)C)C2O)C(C)(OC)CC(C)C(=O)C(C)C2N(C3CN(S(=O)(=O)c4cc(Cl)ccc4OC)C3)C(=O)OC12C (stereo not drawn) [Example 3.106, 3-descladinosyl-11,12-dideoxy-6-O-methyl-3-oxo-12,11-(oxycarbonyl-(1-(5-chloro-2-methoxybenzene-1-sulfonyl)-azetidin-3-yl)-imino)-erythromycin A] | <0.063 | 0.5 (≈ 0.573 µM) | <0.063 | <0.063 | 0.5 (≈ 0.573 µM) | – | – | – | – | –
4 | CCC1OC(=O)C(C)C(=O)C(C)C(OC2OC(C)CC(N(C)C)C2O)C(C)(OC)CC(C)C(=O)C(C)C2N(CC3CCCN3C(=O)c3cc4ncccc4[nH]3)C(=O)OC12C (stereo not drawn) [10.42] | – | – | – | – | – | <0.06 | 0.5 (≈ 0.595 µM) | <0.06 | <0.06 | 64 (≈ 76.2 µM)
5 | CCC1OC(=O)C(C)C(=O)C(C)C(OC2OC(C)CC(N(C)C)C2O)C(C)(OC)CC(C)C(=O)C(C)C2N(C3CN(C(=O)NCc4cnc5ccccc5c4)C3)C(=O)OC12C (stereo not drawn) [Example 2.11, N-((quinolin-3-)methyl) aminocarbonyl] | <0.06 | 0.5 (≈ 0.587 µM) | 2 (≈ 2.35 µM) | 0.12 (≈ 0.141 µM) | >64.00 | – | – | – | – | –
6 | CCC1OC(=O)C(C)(F)C(=O)C(C)C(OC2OC(C)CC(N(C)C)C2O)C(C)(OC)CC(C)C(=O)C(C)C2N(CC3CCCN3C(=O)c3nc4ccccc4[nH]3)C(=O)OC12C [Example 10.27, 3-descladinosyl-11,12-dideoxy-2-fluoro-6-O-methyl-3-oxo-12,11-(oxycarbonyl-(1-(1H-benzo[d]imidazole-2-carboxyl)-((R)-pyrrolidin-2-yl)-methyl)-imino)-erythromycin A] | – | – | – | – | – | <0.06 | 2 (≈ 2.33 µM) | <0.06 | 0.25 (≈ 0.291 µM) | 8 (≈ 9.32 µM)
7 | CC[C@H]1OC(=O)[C@H](C)C(=O)[C@H](C)[C@@H](O[C@@H]2O[C@H](C)C[C@H](N(C)C)[C@H]2O)[C@](C)(OC)C[C@@H](C)C(=O)[C@H](C)[C@H]2N(CC3(O)CN(C(=O)c4ccc5cccnc5c4)C3)C(=O)O[C@]12C [7.21] | – | – | – | – | – | <0.06 | 2 (≈ 2.34 µM) | 0.5 (≈ 0.586 µM) | 1 (≈ 1.17 µM) | >64.00
8 | CCC1OC(=O)C(C)C(=O)C(C)C(OC2OC(C)CC(N(C)C)C2O)C(C)(OC)CC(C)C(=O)C(C)C2N(CC3CN(Cc4ccc5ccccc5c4)C3)C(=O)OC12C (stereo not drawn) [4.29] | <0.06 | 0.12 (≈ 0.146 µM) | 2 (≈ 2.43 µM) | <0.06 | 16 (≈ 19.5 µM) | – | – | – | – | –
9 | CCC1OC(=O)C(C)C(=O)C(C)C(OC2OC(C)CC(N(C)C)C2O)C(C)(OC)CC(C)C(=O)C(C)C2N(CC3CCCN3Cc3c[nH]nn3)C(=O)OC12C (stereo not drawn) [10.02] | – | – | – | – | – | <0.06 | 1 (≈ 1.29 µM) | 0.25 (≈ 0.322 µM) | 2 (≈ 2.57 µM) | >64.00
10 | CCC1OC(=O)C(C)C(=O)C(C)C(OC2OC(C)CC(N(C)C)C2O)C(C)(OC)CC(C)C(=O)C(C)C2N(C3CN(C(c4ccccc4)c4ccncc4)C3)C(=O)OC12C (single isomer, unassigned) [Example 1.68, phenyl-(pyridin-4-yl)methyl (*)] | <0.06 | 4 (≈ 4.79 µM) | 4 (≈ 4.79 µM) | <0.06 | 32 (≈ 38.3 µM) | – | – | – | – | –
11 | CCC1OC(=O)C(C)C(=O)C(C)C(OC2OC(C)CC(N(C)C)C2O)C(C)(OC)CC(C)C(=O)C(C)C2N(C3CCN(S(=O)(=O)c4cccc5cnccc45)C3)C(=O)OC12C (stereo not drawn) [Example 9.08, isoquinoline-5-sulfonyl] | – | – | – | – | – | <0.06 | 0.25 (≈ 0.286 µM) | 4 (≈ 4.58 µM) | 0.12 (≈ 0.137 µM) | 16 (≈ 18.3 µM)
12 | CCC1OC(=O)C(C)C(=O)C(C)C(OC2OC(C)CC(N(C)C)C2O)C(C)(OC)CC(C)C(=O)C(C)C2N(CC3CCCN3C(=O)c3cnc4ccccc4c3)C(=O)OC12C (stereo not drawn) [12.05] | – | – | – | – | – | <0.06 | 4 (≈ 4.7 µM) | 1 (≈ 1.18 µM) | 1 (≈ 1.18 µM) | >64.00
13 | CCC1OC(=O)C(C)C(=O)C(C)C(OC2OC(C)CC(N(C)C)C2O)C(C)(OC)CC(C)C(=O)C(C)C2N(C3CN(Cc4ccnc5ccccc45)C3)C(=O)OC12C (stereo not drawn) [Example 1.16, 3-descladinosyl-11,12-dideoxy-6-O-methyl-3-oxo-12,11-(oxycarbonyl-(1-((quinolin-4-yl)-methyl)-azetidin-3-yl)-imino)-erythromycin A] | <0.06 | 0.5 (≈ 0.618 µM) | <0.06 | 0.25 (≈ 0.309 µM) | 4.25 (≈ 5.25 µM) | – | – | – | – | –
14 | CCC1OC(=O)C(C)C(=O)C(C)C(OC2OC(C)CC(N(C)C)C2O)C(C)(OC)CC(C)C(=O)C(C)C2N(CC3CN(Cc4ccn(-c5cccnc5)n4)C3)C(=O)OC12C.O=CO (stereo not drawn) [4.30] | <0.06 | 0.5 | >64.00 | 0.25 | >64.00 | – | – | – | – | –
15 | CCC1OC(=O)C(C)C(=O)C(C)C(OC2OC(C)CC(N(C)C)C2O)C(C)(OC)CC(C)C(=O)C(C)C2N(C3CN(C(=O)Nc4cccc5ncccc45)C3)C(=O)OC12C (stereo not drawn) [Example 2.06, 3-descladinosyl-11,12-dideoxy-6-O-methyl-3-oxo-12,11-(oxycarbonyl-(1-(N-(quinolin-5-yl)-aminocarbonyl)-azetidin-3-yl)-imino)-erythromycin A] | <0.06 | 0.5 (≈ 0.597 µM) | 16 (≈ 19.1 µM) | 0.25 (≈ 0.298 µM) | >64.00 | – | – | – | – | –
16 | CCC1OC(=O)C(C)C(=O)C(C)C(OC2OC(C)CC(N(C)C)C2O)C(C)(OC)CC(C)C(=O)C(C)C2N(C3CN(Cc4cn[nH]c4)C3)C(=O)OC12C (stereo not drawn) [Example 1.19, (1H-pyrazol-4-yl)methyl] | <0.06 | 0.5 (≈ 0.669 µM) | 0.12 (≈ 0.16 µM) | 4 (≈ 5.35 µM) | >64.00 | – | – | – | – | –
17 | CCC1OC(=O)C(C)C(=O)C(C)C(OC2OC(C)CC(N(C)C)C2O)C(C)(OC)CC(C)C(=O)C(C)C2N(C3CN(S(=O)(=O)c4ccc(C#N)nc4)C3)C(=O)OC12C (stereo not drawn) [Example 3.48, 6-cyanopyridine-3-sulfonyl] | <0.06 | 0.5 (≈ 0.6 µM) | 1 (≈ 1.2 µM) | <0.06 | >64.00 | – | – | – | – | –
18 | CCC1OC(=O)C(C)C(=O)C(C)C(OC2OC(C)CC(N(C)C)C2O)C(C)(OC)CC(C)C(=O)C(C)C2N(CC3CCCN3C(=O)c3cc4cccnc4nc3C(F)(F)F)C(=O)OC12C (stereo not drawn) [10.40] | – | – | – | – | – | <0.06 | 2 (≈ 2.17 µM) | <0.06 | <0.06 | >64.00

— US7462600B2, “Macrolides” (Pfizer Inc, priority 2004, dated 2008)
